Assay results from the NIST ThermoML archive (doi:10.1016/j.jct.2012.11.020).

Assay: xn = mol fraction of the nth substance listed
Settings: 100 kPa, Liquid; for electrical conductivity: Alternating current cell with electrodes; for viscosity: Cone and plate viscometry; for mass density: Vibrating tube method

C1CC[NH2+]C1.O=[N+]([O-])[O-] [pyrrolidinium nitrate] + CC1COC(=O)O1
Settings | electrical conductivity [S/m] | mass density [kg/m3] | viscosity [mPa·s]
258.15 K, x1 = 0.3 | 0.387 | – | –
260.15 K, x1 = 0.1 | 0.142 | – | –
260.15 K, x1 = 0.22 | 0.315 | – | –
262.15 K, x1 = 0.5 | 0.673 | – | –
263.15 K, x1 = 0.3 | 0.481 | – | –
266.45 K, x1 = 0.22 | 0.376 | – | –
268.15 K, x1 = 0.1 | 0.207 | – | –
268.15 K, x1 = 0.3 | 0.585 | – | –
268.15 K, x1 = 0.5 | 0.91 | – | –
270.15 K, x1 = 0.8 | 0.0803 | – | –
273.15 K, x1 = 0.1 | 0.243 | – | –
273.15 K, x1 = 0.22 | 0.446 | – | –
273.15 K, x1 = 0.3 | 0.694 | – | –
273.15 K, x1 = 0.5 | 1.1 | – | –
273.15 K, x1 = 0.8 | 0.118 | – | –
278.15 K, x1 = 0.1 | 0.281 | – | –
278.15 K, x1 = 0.22 | 0.505 | – | –
278.15 K, x1 = 0.3 | 0.807 | – | –
278.15 K, x1 = 0.5 | 1.19 | – | –
278.15 K, x1 = 0.8 | 0.206 | – | –
283.15 K, x1 = 0.1 | 0.322 | 1221 | 5.97
283.15 K, x1 = 0.22 | 0.562 | 1225.2 | 7.55
283.15 K, x1 = 0.3 | 0.92 | 1227.5 | 9.98
283.15 K, x1 = 0.4 | – | 1229.8 | 14.1
283.15 K, x1 = 0.5 | 1.49 | 1231.5 | 18.85
283.15 K, x1 = 0.62 | – | 1233 | 23.36
283.15 K, x1 = 0.7 | – | 1233.3 | 28.76
283.15 K, x1 = 0.8 | 0.352 | 1234 | 35.56
283.15 K, x1 = 1 | – | 1235 | 58.87
284.15 K, x1 = 1 | 2.93 | – | –
288.15 K, x1 = 0.1 | 0.362 | – | –
288.15 K, x1 = 0.22 | 0.606 | – | –
288.15 K, x1 = 0.3 | 1.04 | – | –
288.15 K, x1 = 0.5 | 1.7 | – | –
288.15 K, x1 = 0.8 | 0.644 | – | –
293.15 K, x1 = 0.1 | 0.405 | 1211 | 4.71
293.15 K, x1 = 0.22 | 0.702 | 1215.8 | 5.73
293.15 K, x1 = 0.3 | 1.17 | 1218.5 | 7.37
293.15 K, x1 = 0.4 | – | 1221.2 | 10.17
293.15 K, x1 = 0.5 | 1.91 | 1223.1 | 13.06
293.15 K, x1 = 0.62 | – | 1225 | 17.16
293.15 K, x1 = 0.7 | – | 1225.6 | 20.39
293.15 K, x1 = 0.8 | 1.44 | 1226.5 | 24.65
293.15 K, x1 = 1 | 3.71 | 1228 | 40.29
298.15 K, x1 = 0.1 | 0.449 | – | –
298.15 K, x1 = 0.22 | 0.745 | – | –
298.15 K, x1 = 0.3 | 1.3 | – | –
298.15 K, x1 = 0.5 | 2.13 | – | –
298.15 K, x1 = 0.8 | 2.49 | – | –
298.15 K, x1 = 1 | 4.22 | – | –
303.15 K, x1 = 0.1 | 0.497 | 1200.9 | 3.6
303.15 K, x1 = 0.22 | 0.832 | 1206.4 | 4.5
303.15 K, x1 = 0.3 | 1.44 | 1209.5 | 5.71
303.15 K, x1 = 0.4 | – | 1212.6 | 7.73
303.15 K, x1 = 0.5 | 2.37 | 1214.9 | 9.78
303.15 K, x1 = 0.62 | – | 1216.9 | 12.55
303.15 K, x1 = 0.7 | – | 1218 | 15.17
303.15 K, x1 = 0.8 | 2.8 | 1218.9 | 18.53
303.15 K, x1 = 1 | – | 1220.4 | 28.81
304.15 K, x1 = 1 | 4.94 | – | –
308.15 K, x1 = 0.1 | 0.546 | – | –
308.15 K, x1 = 0.22 | 0.93 | – | –
308.15 K, x1 = 0.3 | 1.59 | – | –
308.15 K, x1 = 0.5 | 2.62 | – | –
308.15 K, x1 = 0.8 | 3.13 | – | –
313.15 K, x1 = 0.1 | 0.597 | 1191 | 2.66
313.15 K, x1 = 0.22 | 1.03 | 1197 | 3.64
313.15 K, x1 = 0.3 | 1.74 | 1200.6 | 4.57
313.15 K, x1 = 0.4 | – | 1204.1 | 6.07
313.15 K, x1 = 0.5 | 2.88 | 1206.7 | 7.59
313.15 K, x1 = 0.62 | – | 1209.1 | 9.6
313.15 K, x1 = 0.7 | – | 1210.4 | 11.72
313.15 K, x1 = 0.8 | 3.46 | 1212 | 14.49
313.15 K, x1 = 1 | 5.97 | 1213.1 | 20.91
318.15 K, x1 = 0.1 | 0.65 | – | –
318.15 K, x1 = 0.22 | 1.13 | – | –
318.15 K, x1 = 0.3 | 1.9 | – | –
318.15 K, x1 = 0.5 | 3.15 | – | –
318.15 K, x1 = 0.8 | 3.81 | – | –
323.15 K, x1 = 0.1 | 0.704 | 1181.1 | 2.24
323.15 K, x1 = 0.22 | 1.23 | 1187.7 | 3.04
323.15 K, x1 = 0.3 | 2.06 | 1191.7 | 3.75
323.15 K, x1 = 0.4 | – | 1195.7 | 4.91
323.15 K, x1 = 0.5 | 3.43 | 1198.6 | 6.07
323.15 K, x1 = 0.62 | – | 1201.4 | 7.57
323.15 K, x1 = 0.7 | – | 1203 | 9.33
323.15 K, x1 = 0.8 | 4.18 | 1204 | 10.97
323.15 K, x1 = 1 | 7.17 | 1205.5 | 16.7
328.15 K, x1 = 0.1 | 0.759 | – | –
328.15 K, x1 = 0.22 | 1.33 | – | –
328.15 K, x1 = 0.3 | 2.22 | – | –
328.15 K, x1 = 0.5 | 3.72 | – | –
328.15 K, x1 = 0.8 | 4.57 | – | –
333.15 K, x1 = 0.1 | 0.816 | 1171.2 | 1.91
333.15 K, x1 = 0.22 | 1.44 | 1178.5 | 2.57
333.15 K, x1 = 0.3 | 2.39 | 1182.9 | 3.14
333.15 K, x1 = 0.4 | – | 1187.4 | 4.06
333.15 K, x1 = 0.5 | 4.01 | 1190.6 | 4.97
333.15 K, x1 = 0.62 | – | 1193.8 | 6.15
333.15 K, x1 = 0.7 | – | 1195.6 | 7.61
333.15 K, x1 = 0.8 | 4.97 | 1196.5 | 8.83
333.15 K, x1 = 1 | 8.51 | 1197.2 | 13.3
338.15 K, x1 = 0.1 | 0.874 | – | –
338.15 K, x1 = 0.22 | 1.54 | – | –
338.15 K, x1 = 0.3 | 2.56 | – | –
338.15 K, x1 = 0.5 | 4.32 | – | –
338.15 K, x1 = 0.8 | 5.38 | – | –
343.15 K, x1 = 0.1 | 0.932 | 1161.4 | 1.65
343.15 K, x1 = 0.22 | 1.66 | 1169.3 | 2.2
343.15 K, x1 = 0.3 | 2.73 | 1174.2 | 2.68
343.15 K, x1 = 0.4 | – | 1179.1 | 3.44
343.15 K, x1 = 0.5 | 4.62 | 1182.7 | 4.16
343.15 K, x1 = 0.62 | – | 1186.2 | 5.19
343.15 K, x1 = 0.7 | – | 1188 | 6.42
343.15 K, x1 = 0.8 | 5.8 | 1189.5 | 7.91
343.15 K, x1 = 1 | – | 1190.2 | 11.17
344.95 K, x1 = 1 | 9.3 | – | –
348.15 K, x1 = 0.1 | 0.992 | – | –
348.15 K, x1 = 0.22 | 1.77 | – | –
348.15 K, x1 = 0.3 | 2.91 | – | –
348.15 K, x1 = 0.5 | 4.93 | – | –
348.15 K, x1 = 0.8 | 6.24 | – | –
353.15 K, x1 = 0.1 | 1.05 | 1151.6 | 1.45
353.15 K, x1 = 0.22 | 1.88 | 1160.1 | 1.91
353.15 K, x1 = 0.3 | 3.09 | 1165.4 | 2.32
353.15 K, x1 = 0.4 | – | 1170.8 | 2.95
353.15 K, x1 = 0.5 | 5.24 | 1174.9 | 3.54
353.15 K, x1 = 0.62 | – | 1178.7 | 4.3
353.15 K, x1 = 0.7 | – | 1180 | 5.2
353.15 K, x1 = 0.8 | 6.68 | 1181.5 | 6.35
353.15 K, x1 = 1 | – | 1182 | 9.28
353.65 K, x1 = 1 | 10.5 | – | –
358.15 K, x1 = 0.1 | 1.11 | – | –
358.15 K, x1 = 0.22 | 1.99 | – | –
358.15 K, x1 = 0.3 | 3.19 | – | –
358.15 K, x1 = 0.5 | 5.55 | – | –
358.15 K, x1 = 0.8 | 7.12 | – | –
362.15 K, x1 = 0.3 | 3.35 | – | –
363.15 K, x1 = 0.5 | 5.83 | – | –
363.15 K, x1 = 0.8 | 7.57 | – | –
